According to patent US5169944A, “Methods and compositions for the enteral administration of hepatobiliary MRI contrast agents” (Board of Regents of the University of Washington, priority 1991, dated 1992):
“Also recorded” adds a separate entry of the source.

Experiments:
liver = details: cited from earlier work; for contrast enhancement: subsequent limited imaging experiments
liver abscess = assay: MRI enhancement in liver abscess rats: liver abscess; assay type: in vivo, Sprague-Dawley rats
[1] = rat, in vivo
[2] = Deaths following the imaging experiment; assay type: in vivo, Sprague-Dawley rats; details: 5 rats per agent, i.v.; unclear whether due to contrast media or anesthesia
Procedure: Pyrogenic liver abscesses were induced in Sprague-Dawley rats following the method of Weinsten, WM, 1975. Twelve female sprague-Dawley rats (250-300 g each) underwent midline laparotomy following intraperitoneal anesthesia with sodium pentobarbital (40-50 mg/kg), and a filtered bacterial inoculum of colonic contents was directly injected into the liver of each rat. Two animals died within 24 hours following surgery and were excluded from the study. The remaining 10 rats underwent MR imaging 4-6 days after surgery, as described below.
These studies were done at an estimated 1/10 of the LD50 of protoporphyrin (Jackson et al, 1985).

[3] = test system: liver metastases (mammary adenocarcinoma R3230 AC); assay: MRI enhancement in rats with liver metastases: tumor; assay type: in vivo, Fischer 344 female rats; details: for visualization of tumor deposits: i.v.
Procedure: The entire procedure was performed under sterile conditions. Four animals died within 48 hours following surgery.

subcutaneous abscesses = assay: MRI enhancement in liver abscess rats: subcutaneous abscesses; assay type: in vivo, Sprague-Dawley rats; details: for enhancement of subcutaneous abscesses (in words): i.v.
normal liver parenchyma [4] = assay: MRI enhancement in normal and liver abscess rats: normal liver parenchyma; assay type: in vivo, Sprague-Dawley rats
[5] = test system: normal subcutaneous tissue; assay: MRI enhancement in liver abscess rats: normal subcutaneous tissue; assay type: in vivo, Sprague-Dawley rats; details: for enhancement of normal subcutis (in words): i.v.
[6] = early work; cited from earlier work
Vx-2 tumor = assay: MRI signal enhancement, Vx-2 carcinoma model: tumor; assay type: in vivo, New Zealand White (NZW) rabbits; details: i.v. 0.04 mmol/kg, 30 minutes
[7] = in vitro
normal liver tissue [8] = details: gastric lavage, 0.05 mmol/kg Mn mesoporphyrin + […] mixed micelles, 4 hours
normal liver tissue [9] = details: i.v. 0.04 mmol/kg, 30 minutes
[10] = solubility and stability in hydrophilic and lipophilic solvents
normal liver parenchyma [11] = test system: normal liver parenchyma
Procedure: Imaging experiments were performed with a General Electric CSI-II 2.0 T (85.6 Mhz proton resonant frequency) chemical shift imaging spectrometer (GE Medical Systems, Fremont, Calif.). The proton imaging sequence used was that of a standard pin echo 2DFT sequence that employed a single 3 mm slice thickness with four phase cycled signal acquisitions. […] Coronal images were obtained of the rats+ abdomen and thorax using a TR of 160 msec and a TE of 16 msec. A specially designed 53 mm outer diameter (130 mm long) imaging coil of the low-pass birdcage resonantor design was employed with a balanced-matched tuning network for all images. […]
Signal intensity was measured by region-of-interest (ROI) analysis both for normal liver parenchyma, liver lesions and a corn oil standard. […] Signal intensity was measured over the center of the hepatic abscesses. Signal intensities were also determined for normal subcutaneous tissue in the area of the thoracic wall and for subcutaneous abscesses located in the anterior abdominal wall in rats with liver abscesses. Measured signal intensities (SI) were normalized to the intensity of the corn oil standard for all pre- and postcontrast images. Signal intensity enhancement was calculated according to the formula: (SI postcontrast-SI precontrast)/SI precontrast. […]

gall bladder = details: i.v. 0.04 mmol/kg, 30 minutes

## O=C([O-])CN(CCN(CC(=O)[O-])CC(=O)[O-])CCN(CC(=O)[O-])C(COCc1ccccc1)C(=O)[O-].[Gd+3] (stereo not drawn) [Gd-BOPTA]
liver; in vivo
  hepatic excretion and bile duct opacification: undergoes hepatic excretion and opacifies the bile ducts

## CNC[C@H](O)[C@@H](O)[C@H](O)[C@H](O)CO.CNC[C@H](O)[C@@H](O)[C@H](O)[C@H](O)CO.O=C([O-])CN(CCN(CC(=O)[O-])CC(=O)O)CCN(CC(=O)[O-])CC(=O)O.[Gd+3] [Gd-DTPA, gadopentetate dimeglumine]
liver; intravenous
  contrast enhancement of normal liver and focal liver lesions: nonselectively enhances either normal liver, focal liver lesions or both

## O=S(=O)([O-])c1ccc(-c2c3nc(c(-c4ccc(S(=O)(=O)[O-])cc4)c4ccc([nH]4)c(-c4ccc(S(=O)(=O)[O-])cc4)c4nc(c(-c5ccc(S(=O)(=O)[O-])cc5)c5ccc2[nH]5)C=C4)C=C3)cc1.[Mn+4] [Mn TPPS4, manganese tetrakis-(4-sulfonatophenyl)porphyrin, reference compound]
Liver abscess; i.v.
  contrast between normal and diseased tissue: enhanced both normal liver and abscesses, thus providing no improved contrast between normal and diseased tissue
Liver abscess; i.v. Mn TPPS4, 10 minutes post injection, p less than 0.05
  enhancement of liver abscess: 63%
[1]
  skin discoloration: green discoloration of the skin
[2]
  death following the imaging experiment: One rat
[3]
  visualization of tumor deposits: failed to help in distinguishing the site of the tumor deposits
[3]; i.v. Mn-TPPS4
  enhancement of liver and tumor / lesion discrimination: enhanced both liver and tumor thus providing no discrimination of the lesion
Subcutaneous abscesses
  enhancement of subcutaneous abscesses (in words): enhanced both subcutis and subcutaneous abscesses
Subcutaneous abscesses; i.v. Mn TPPS4, 60 minutes, p greater than 0.05
  enhancement of subcutaneous abscesses: 88%
Normal liver parenchyma [4]; i.v. Mn TPPS4, 10 minutes post injection, p greater than 0.05
  enhancement of normal liver parenchyma: 43%
[5]
  enhancement of normal subcutis (in words): enhanced both subcutis and subcutaneous abscesses
[5]; i.v. Mn TPPS4, 60 minutes, p less than 0.05
  enhancement of normal subcutaneous tissue: 56%

## C=CC1=C(C)c2cc3[n-]c(cc4[n-]c(cc5nc(cc1n2)C(C)=C5C=C)c(C)c4CCC(=O)[O-])c(CCC(=O)[O-])c3C.[H+].[H+].[Mn+2] [manganese protoporphyrin]
liver
  contrast enhancement: caused hepatic and biliary contrast enhancement

## C=CC1=C(C)c2cc3[nH]c(cc4nc(cc5[nH]c(cc1n2)c(C)c5CCC(=O)O)C(CCC(=O)O)=C4C)c(C)c3C=C [protoporphyrin]
[6]
  solubility: poor solubility
  toxicity: apparent high toxicity
liver; early work
  T1 effects in the liver: tissue specific T1(inversion time) effects were clearly demonstrated in the liver

## manganese (III) mesoporphyrin [Mn mesoporphyrin]
Liver abscess; i.v., any time
  enhancement of liver abscesses (in words): not enhanced at any time
Vx-2 tumor
  enhancement of the tumor tissue (MRI signal intensity): 12.7+/-12.1%
  statistical significance of tumor enhancement: not statistically significant
[2]
  death following the imaging experiment: one
[7]
  binding by cholestyramine: cholestyramine binds Mn mesoporphyrin
Normal liver tissue [8]
  enhancement of normal liver tissue over baseline: 65%
Normal liver tissue [9]
  enhancement of the liver (MRI signal intensity): 89.6+/-17.5%
Liver metastases; gastric, 0.05 mmol/kg + […] mixed micelles, single observation vs control animal
  tumor-to-liver contrast: significant increase of the tumor-to-liver contrast
Liver metastases; tumor-to-liver contrast, oral administration
  enhancement properties, oral vs intravenous: substantially equivalent to the properties established for intravenous administration
[3]; 24 and 48 hrs, n=3 rats
  delayed tumor enhancement: no delayed tumor enhancement was observed
[3]
  visualization of tumor deposits: made visualization of tumor deposits extremely simple
[3]; i.v. 0.035 mmol/kg, center and periphery of tumors, over 60 min, n=6 rats
  effect on signal intensity of metastases: did not significantly affect the signal intensity of metastases
Subcutaneous abscesses
  enhancement of subcutaneous abscesses (in words): did not yield enhancement; also recorded: did not enhance either subcutis or subcutaneous abscesses
Normal liver parenchyma [4]; i.v. 0.035-0.045 mmol/kg, 10 minutes, p less than 0.01
  liver enhancement: 43%
Normal liver parenchyma [4]; i.v., over the observation period of 60 min, significant
  prolonged enhancement of normal liver parenchyma: 30-50%
[10]
  solubility in K2PO4 / water-based buffer: improved solubility in high pH solutions
Normal liver parenchyma [11]; 24 and 48 hrs, n=3 rats, may be artificially high
  increase of signal intensity of normal liver parenchyma over baseline: 30%
Normal liver parenchyma [11]; i.v. 0.035 mmol/kg, over 60 min
  maximum enhancement of normal liver parenchyma: 70%
liver; T1 weighted MRI, non-toxic doses
  contrast enhancement of normal hepatic tissue: contrast enhancement of normal hepatic tissue leading to improved diagnostic visualization of tumors and abscesses
[5]
  enhancement of normal subcutis (in words): did not yield enhancement; also recorded: did not enhance either subcutis or subcutaneous abscesses
Gall bladder
  enhancement of the gall bladder (MRI signal intensity): 373+/-92.3%

## manganese uroporphyrin
liver
  contrast enhancement: produced dramatic contrast effects in the kidneys and urine
